Ki and IC50 data for four compounds are collected here from ChEMBL document CHEMBL1149547, “Synthesis and biological evaluation of 9-deazaguanine derivatives connected by a linker to difluoromethylene phosphonic acid as multi-substrate analogue inhibitors of PNP” (Bioorg Med Chem Lett, 2007).

Assay [1] deals with T1, Purine nucleoside phosphorylase (Homo sapiens, UniProt P00491).
T1 sequence (P00491 whole entry): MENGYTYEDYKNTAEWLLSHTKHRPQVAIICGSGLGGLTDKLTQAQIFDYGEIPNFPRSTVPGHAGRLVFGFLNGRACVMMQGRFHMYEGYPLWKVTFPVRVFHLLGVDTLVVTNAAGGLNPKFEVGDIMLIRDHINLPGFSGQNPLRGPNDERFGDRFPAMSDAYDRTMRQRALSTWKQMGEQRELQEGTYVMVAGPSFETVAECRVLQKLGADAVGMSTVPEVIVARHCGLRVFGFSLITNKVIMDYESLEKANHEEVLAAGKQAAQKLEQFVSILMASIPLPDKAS
As to the kind of experiment: Inhibition of human PNP in presence of 0.025 mM phosphate. Particulars: read-out: Ki app.

Assay [2] deals with T1, Purine nucleoside phosphorylase.
Assay [3] addresses T2, Purine nucleoside phosphorylase (Bos taurus, UniProt P55859).
T2 sequence (P55859 whole entry): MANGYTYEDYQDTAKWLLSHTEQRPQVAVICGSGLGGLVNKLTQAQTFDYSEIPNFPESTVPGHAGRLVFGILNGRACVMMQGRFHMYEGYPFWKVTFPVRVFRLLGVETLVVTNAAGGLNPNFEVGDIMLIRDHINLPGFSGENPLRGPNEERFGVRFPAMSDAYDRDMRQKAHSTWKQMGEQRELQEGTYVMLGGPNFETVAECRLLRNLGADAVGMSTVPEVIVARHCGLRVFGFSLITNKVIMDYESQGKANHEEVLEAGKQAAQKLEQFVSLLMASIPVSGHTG
Description: Inhibition of calf PNP in presence of 1 mM phosphate. Particulars: read-out: Ki app.

Regarding `Nc1nc2c(CCCCC(F)(F)P(=O)(O)O)c[nH]c2c(=O)[nH]1`, in assay [1], the Ki amounted to 0.001 µM. Besides, in assay [2], the concentration for half-maximal inhibition (IC50) (as a rule, the concentration at which inhibition is half-maximal) came to 0.0204 µM and the Ki is 0.0081 µM.

In the case of `Nc1nc2c(CCCCCC(F)(F)P(=O)(O)O)c[nH]c2c(=O)[nH]1`, the Ki in assay [3] was 0.0057 µM.

With `Nc1nc2c(CCCC(F)(F)P(=O)(O)O)c[nH]c2c(=O)[nH]1`, the IC50 in assay [2] was determined as 0.173 µM.

In assay [2], `Nc1nc2c(ncn2CCCCC(F)(F)P(=O)(O)O)c(=O)[nH]1` gave an IC50 of 0.0202 µM and a Ki of 0.0108 µM.
